Laboratory results as given in PMC9925730, “Controlled sequential in situ self-assembly and disassembly of a fluorogenic cisplatin prodrug for cancer theranostics” (Nature Communications, 2023).
“And” between values parts separate entries of the source, which are not always exact repeats. Equal values may be shown once.

Columns and labels:
[1] = Blood analysis in healthy mice (blood count, biochemistry); type: in vivo; set-up: BUN / CRE / WBC / HGB / HCT / MCH / MCHC / MCV / RBC / ALT / AST / TP / T-Bil / Alb: unit not given here; details: for ALT / AST / Alb / BUN / CRE / HCT / MCH / MCHC / MCV / PLT / RBC / T-Bil / TP / WBC: Supplementary Fig. 36
HeLa cells = experiment: Flow cytometry analysis of HeLa cell death (Annexin V-FITC/PI); type: cell-based, human; details: 20 μM 2 h, then blank medium 48 h
Method: Flow cytometric analysis of HeLa cell death. (a) Gating strategy applied for flow cytometric analysis. (b) Representative flow cytometric analysis of HeLa cells by Annexin V-FITC/PI staining. HeLa cells were treated with PBS, CDDP, PtIVNPs or P-CyPt (20 μM) for 2 h, washed with cold PBS for three times, and then continued incubation in refresh blank DMEM medium for another 48 h. The cells were then stained with the Annexin V-FITC/PI kit, and analyzed by flow cytometry. One representative experiment out of two is shown.
Flow cytometry analysis of HeLa cell death. Approximately 2×10^5 cells/well HeLa cells in 2 mL DMEM medium were seeded onto 6-well plates and allowed to grow overnight. The medium was replaced with 1 mL of fresh medium containing P-CyPt (20 μM), PtIVNPs (20 μM) and CDDP (20 μM), respectively. After 2 h incubation, medium was removed and cells were washed with PBS for three times. Then, cells were incubated with fresh medium for another 48 h to induce different levels of apoptosis.
After gentle washing with PBS (×1), the cells were detached from the plates with trypsin (500 μL per well), and the cell pellets were collected after centrifugation at 1000 161× g at 4 °C for 4 min. […] All assays were performed according to the manufacturer instructions, and the cell population was analyzed by annexin V-FITC and PI channels. […]

s.c. HeLa tumors = experiment: Biodistribution study of Pt (ICP-OES); type: in vivo, mice; details: for organ with the highest ID% g^−1: 4 h post i.v. injection; for ID% g^−1 of Pt in tumors: s.c. HeLa tumors, 4 h post i.v. (100 μM, 200 μL), ICP-OES
ALP = target: T1, ALP (Bos taurus, UniProt P19111); experiment: ALP-triggered dephosphorylation and in situ self-assembly in solution (HPLC, DLS, TEM); type: biochemical; set-up: amount of compound in the P-CyPt solution (HPLC, Fig. 2h) / mean size by TEM (Fig. 2i) / mean size by DLS (Fig. 2i): unit not given here; details: for amount of compound in the P-CyPt solution (HPLC, Fig. 2h) / Pt release (ICP-OES, Fig. 2h) / mean size by DLS (Fig. 2i) / mean size by TEM (Fig. 2i): P-CyPt 10 μM, ALP 100 U/L 37 °C
T1 construct: Alkaline phosphatase from bovine; purchased Sigma-Aldrich; host or cells: bovine intestinal mucosa (tissue-derived)
Method: To evaluate the ALP-triggered dephosphorylation and in situ self-assembly process, a solution of P-CyPt (10 μM) in Tris buffer (1 mL) was incubated with ALP (100 U/L) at 37 °C. HPLC, DLS, and TEM analyses were performed at 0, 5, 10, 15, 20, and 30 min. To evaluate the GSH-triggered reduction and disassembly process, P-CyPt (10 μM) in Tris buffer (1 mL) was first incubated with ALP (100 U/L) at 37 °C for 30 min to allow the formation of Pt^IVNPs. The solution was then treated with 10 mM GSH at 37 °C, which was monitored by HPLC, DLS, and TEM at 10, 20, 30, 40, 50, and 60 min.

[2] = LogP measurement in solutions; type: physicochemical; details: octanol / octanol-saturated water
Text: incompatibility between particles i and j. Considering the relative position and chemical components of all the beads, we always keep aAB = aAC = 28, aAS = aCS = 25, and aBS = 35. The concentration of ABC or AB is fixed at 0.03. We performed the dynamics of total 81 000 DPD beads in a cubic box (303) under the periodic boundary conditions.
In these conditions, we carry out 1.0 × 106 steps for each simulation.
Molecular simulation using the Materials Studio program. For each molecule, the most favourable crystal packing was predicted using the Polymorph module as implemented in Materials Studio. The crystal structure prediction protocol includes three parts, Packing, Geometry Optimization and Clustering. […]
Evaluation of the dephosphorylated efficacy of P-CyPt towards ALP. […] The resulting fluorescence intensities in each well in the first 30 minutes were recorded on a Spark™ 10M Multimode Microplate Reader (λex/em = 680/710 nm), and every two-minute intervals record one point. The amount of CyPt at each time point was determined by a standard curve under the same […]
LogP measurement in solutions. […] The UV-vis absorption spectroscopy or fluorescence spectrum was recorded after being diluted in MeOH/H2O (1:1) system (<1% octanol). The logP value was calculated by dividing the amount in the octanol layer to […]

[3] = Supplementary Fig. 36, first HGB block, individual mice
[4] = Supplementary Fig. 36, first HGB block, mean of 3 mice

T1 sequence (P19111 20-506 limits assumed): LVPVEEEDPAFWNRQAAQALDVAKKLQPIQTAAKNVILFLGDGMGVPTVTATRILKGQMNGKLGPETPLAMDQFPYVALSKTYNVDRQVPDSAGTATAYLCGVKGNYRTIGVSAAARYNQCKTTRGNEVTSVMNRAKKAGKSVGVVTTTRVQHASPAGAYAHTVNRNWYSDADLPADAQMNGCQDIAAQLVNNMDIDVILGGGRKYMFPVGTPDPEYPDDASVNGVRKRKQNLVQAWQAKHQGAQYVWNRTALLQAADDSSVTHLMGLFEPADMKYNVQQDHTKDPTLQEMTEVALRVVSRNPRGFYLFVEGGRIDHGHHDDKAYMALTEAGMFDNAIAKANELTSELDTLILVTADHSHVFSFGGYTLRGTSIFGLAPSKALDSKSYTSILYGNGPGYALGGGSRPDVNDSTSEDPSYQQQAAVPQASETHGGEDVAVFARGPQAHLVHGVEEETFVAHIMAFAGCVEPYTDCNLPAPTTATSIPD

With [NH2][Pt]([NH2])([Cl])[Cl] [CDDP, cisplatin] the HGB [1, 3] was 90 (2×) and 67, the HGB [1, 4] was 82.333 and the ALT ([1]; individual mice) was 45.502 and 43.964 and 66.025. The AST ([1]; individual mice) was 126.05 and 97.802 and 100.507, the Alb ([1]; individual mice) was 26.65 and 25.18 and 35.22 and the BUN ([1]; individual mice) was 18.956 and 37.908 and 23.94. The CRE ([1]; individual mice) was 19.831 and 68.509 and 25.561, the HCT ([1]; individual mice) was 35.4 and 40.2 and 41.2 and the MCH ([1]; individual mice) was 16.6 and 15.9 and 18.6. The MCHC ([1]; individual mice) was 350 and 331 and 324, the MCV ([1]; individual mice) was 51.5 and 49.5 and 51.3 and the PLT ([1]; individual mice) was 591 and 289 and 329. For the same molecule, the RBC ([1]; individual mice) was 7.14 and 6.54 and 6.58, the T-Bil ([1]; individual mice) was 21.47 and 18.852 and 18.358 and the TP ([1]; individual mice) was 42.81 and 40.21 and 50.47. For the same molecule, the WBC ([1]; individual mice) was 1.9 and 1.2 and 1.6, the ALT ([1]; mean of 3 mice) was 51.830 and the AST ([1]; mean of 3 mice) was 108.120. It also gave an Alb ([1]; mean of 3 mice) of 29.017, a BUN ([1]; mean of 3 mice) of 26.935 and a CRE ([1]; mean of 3 mice) of 37.967. It also gave an HCT ([1]; mean of 3 mice) of 38.933, an MCH ([1]; mean of 3 mice) of 17.033 and an MCHC ([1]; mean of 3 mice) of 335.000. It also gave an MCV ([1]; mean of 3 mice) of 50.767, a PLT ([1]; mean of 3 mice) of 403.000 and an RBC ([1]; mean of 3 mice) of 6.753. For the same molecule, the T-Bil ([1]; mean of 3 mice) was 19.560, the TP ([1]; mean of 3 mice) was 44.497 and the WBC ([1]; mean of 3 mice) was 1.567. The apoptosis population (HeLa cells) was ~ 5.20%, the “organ with the highest ID% g^−1” value (s.c. HeLa tumors) was “kidneys” and the “ID% g^−1 of Pt in tumors” value (s.c. HeLa tumors) was ~ 3.6%.

With CC1(C)C(/C=C/C2=C3Oc4cc(O)c(Cl)cc4C=C3CCC2)=[N+](CCCNC(=O)[C@@H](Cc2ccccc2)NC(=O)[C@@H](Cc2ccccc2)NC(=O)CCC(=O)[O][Pt]([NH2])([NH2])([OH])([Cl])[Cl])c2ccccc21 [CyPt] the “amount of compound in the P-CyPt solution (HPLC, Fig. 2h)” value (ALP; 0 min) was 0.00, the “amount of compound in the P-CyPt solution (HPLC, Fig. 2h)” value (ALP; 5 min) was 28.25 and the “amount of compound in the P-CyPt solution (HPLC, Fig. 2h)” value (ALP; 10 min) was 54.36. The “amount of compound in the P-CyPt solution (HPLC, Fig. 2h)” value (ALP; 15 min) was 71.75, the “amount of compound in the P-CyPt solution (HPLC, Fig. 2h)” value (ALP; 20 min) was 94.94 and the “amount of compound in the P-CyPt solution (HPLC, Fig. 2h)” value (ALP; 30 min) was 100.00. It also gave a LogP value [2] of 2.50 ± 0.03.

For CC1(C)C(/C=C/C2=C3Oc4cc(OP(=O)(O)O)c(Cl)cc4C=C3CCC2)=[N+](CCCNC(=O)[C@@H](Cc2ccccc2)NC(=O)[C@@H](Cc2ccccc2)NC(=O)CCC(=O)[O][Pt]([NH2])([NH2])([OH])([Cl])[Cl])c2ccccc21 [P-CyPt], the HGB [1, 3] was 124 and 128 and 97, the HGB [1, 4] was 116.333 and the HGB ([1]; Supplementary Fig. 36, second HGB block (between AST and TP), mean of 3 mice) was 3.426. The ALT ([1]; individual mice) was 64.638 and 69.471 and 57.14, the AST ([1]; individual mice) was 93.668 and 95.637 and 124.668 and the Alb ([1]; individual mice) was 28.06 and 34.76 and 32.73. The BUN ([1]; individual mice) was 22.456 and 18.592 and 16.632, the CRE ([1]; individual mice) was 23.568 and 18.005 and 14.662 and the HCT ([1]; individual mice) was 42 and 36 and 35.3. For the same molecule, the MCH ([1]; individual mice) was 18.3 and 18.9 and 16.6, the MCHC ([1]; individual mice) was 315 and 345 and 304 and the MCV ([1]; individual mice) was 50.3 and 49.6 and 53.5. The PLT ([1]; individual mice) was 463 and 494 and 673, the RBC ([1]; individual mice) was 7.22 and 7.49 and 6.74 and the T-Bil ([1]; individual mice) was 20.416 and 17.788 and 25.91. The TP ([1]; individual mice) was 41.72 and 48.65 and 44.25, the WBC ([1]; individual mice) was 2.3 and 2.6 and 1.5 and the ALT ([1]; mean of 3 mice) was 63.750. For the same molecule, the AST ([1]; mean of 3 mice) was 104.658, the Alb ([1]; mean of 3 mice) was 31.850 and the BUN ([1]; mean of 3 mice) was 19.227. It also gave a CRE ([1]; mean of 3 mice) of 18.745, an HCT ([1]; mean of 3 mice) of 37.767 and an MCH ([1]; mean of 3 mice) of 17.933. For the same molecule, the MCHC ([1]; mean of 3 mice) was 321.333, the MCV ([1]; mean of 3 mice) was 51.133 and the PLT ([1]; mean of 3 mice) was 543.333. For the same molecule, the RBC ([1]; mean of 3 mice) was 7.150, the T-Bil ([1]; mean of 3 mice) was 21.371 and the TP ([1]; mean of 3 mice) was 44.873. For the same molecule, the WBC ([1]; mean of 3 mice) was 2.133, the “blood count and biochemistry values” ([1]; healthy nude mice, 1 day post i.v. 2.25 mg kg-1 Pt) was “all the values were within the normal reference” and the “conversion of P-CyPt into CyPt on incubation with ALP (HPLC)” value (ALP; 100 U/L ALP, Tris buffer pH 8.0, after 30 min) was “completely converted into CyPt”. The “Pt release (ICP-OES, Fig. 2h)” value (ALP; 0 min) was 0%, the “amount of compound in the P-CyPt solution (HPLC, Fig. 2h)” value (ALP; 0 min) was 100.00 and the “mean size by DLS (Fig. 2i)” value (ALP; 0 min) was 0.00. The “mean size by TEM (Fig. 2i)” value (ALP; 0 min) was 0.00, the “Pt release (ICP-OES, Fig. 2h)” value (ALP; 5 min) was 0% and the “amount of compound in the P-CyPt solution (HPLC, Fig. 2h)” value (ALP; 5 min) was 72.64. The “mean size by DLS (Fig. 2i)” value (ALP; 5 min) was 45.78, the “mean size by TEM (Fig. 2i)” value (ALP; 5 min) was 54.14 and the “Pt release (ICP-OES, Fig. 2h)” value (ALP; 10 min) was 0%. For the same molecule, the “amount of compound in the P-CyPt solution (HPLC, Fig. 2h)” value (ALP; 10 min) was 46.65, the “mean size by DLS (Fig. 2i)” value (ALP; 10 min) was 88.09 and the “mean size by TEM (Fig. 2i)” value (ALP; 10 min) was 87.54. For the same molecule, the “Pt release (ICP-OES, Fig. 2h)” value (ALP; 15 min) was 0%, the “amount of compound in the P-CyPt solution (HPLC, Fig. 2h)” value (ALP; 15 min) was 28.27 and the “mean size by DLS (Fig. 2i)” value (ALP; 15 min) was 112.94. The “mean size by TEM (Fig. 2i)” value (ALP; 15 min) was 105.56, the “Pt release (ICP-OES, Fig. 2h)” value (ALP; 20 min) was 0% and the “amount of compound in the P-CyPt solution (HPLC, Fig. 2h)” value (ALP; 20 min) was 6.15. For the same molecule, the “mean size by DLS (Fig. 2i)” value (ALP; 20 min) was 150.95, the “mean size by TEM (Fig. 2i)” value (ALP; 20 min) was 121.94 and the “Pt release (ICP-OES, Fig. 2h)” value (ALP; 30 min) was 0%. For the same molecule, the “amount of compound in the P-CyPt solution (HPLC, Fig. 2h)” value (ALP; 30 min) was 1.54, the “mean size by DLS (Fig. 2i)” value (ALP; 30 min) was 162.05 and the “mean size by TEM (Fig. 2i)” value (ALP; 30 min) was 152.65. The apoptosis population (HeLa cells) was ~ 64.5%, the LogP value [2] was 0.68 ± 0.03 and the “organ with the highest ID% g^−1” value (s.c. HeLa tumors) was “tumors”. For the same molecule, the “ID% g^−1 of Pt in tumors” value (s.c. HeLa tumors) was about 20.3%.
